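Assay format: 96-well plates, 48-hour exposure. GI50: concentration for 50% inhibition of growth. Definition used: TGI = concentration required for complete inhibition of growth.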
How the values were obtained:
Assay in all cases: NCI anticancer screen, dose series, 48 h
T-47D breast = test system: T-47D breast
HS 578T breast = test system: HS 578T breast
DU-145 prostate = test system: DU-145 prostate
MDA-MB-231 breast = test system: MDA-MB-231 breast
DMS 114 small cell lung = test system: DMS 114 small cell lung
DMS 273 small cell lung = test system: DMS 273 small cell lung
KM20L2 colon = test system: KM20L2 colon
SNB-78 CNS = test system: SNB-78 CNS
M19-MEL melanoma = test system: M19-MEL melanoma
XF 498 CNS = test system: XF 498 CNS
MDA-N = test system: MDA-N

Structure (SMILES) | TGI (T-47D breast) | TGI (HS 578T breast) | TGI (DU-145 prostate) | TGI (MDA-MB-231 breast) | TGI (DMS 114 small cell lung) | TGI (DMS 273 small cell lung) | TGI (KM20L2 colon) | TGI (SNB-78 CNS) | TGI (M19-MEL melanoma) | TGI (XF 498 CNS) | also measured
CCc1nc(N)nc(N)c1-c1ccc(Cl)c(Cl)c1 | > 100 µM | > 100 µM | > 100 µM | > 100 µM | – | – | – | – | – | – | –
COc1ccccc1C1C(C(=O)O)=C(CO)Oc2cc3c(cc21)OCO3 (configuration not stated) | – | – | – | – | > 100 µM | > 100 µM | > 100 µM | > 100 µM | > 100 µM | – | –
Cc1ccc(S(=O)(=O)Oc2cc(-c3ccccc3)nc3ccccc23)cc1 | – | – | – | – | 1.24 µM | > 28 µM | 3.52 µM | 50.6 µM | 40.6 µM | 24.3 µM | –
NC(Cc1cccc([N+](=O)[O-])c1)C(=O)O (configuration not stated) | > 100 µM | > 100 µM | > 100 µM | > 100 µM | – | – | – | – | – | – | TGI (MDA-N): > 100 µM
O=[N+]([O-])c1ccc(C=C2C(Cl)=C(Cl)C(Cl)=C2Cl)cc1 | 5.46 µM | – | – | > 100 µM | – | – | – | – | – | – | GI50 (T-47D breast): 2.16 µM; GI50 (MDA-MB-231 breast): 3.39 µM
CC1CC=CC(O)C1 (configuration not stated) | – | – | – | – | > 100 µM | > 100 µM | > 100 µM | > 100 µM | > 100 µM | > 100 µM | –
Cc1ccc2c(n1)C(=O)c1[nH]c3ccccc3c1C2=O | 17.9 µM | 7.16 µM | 2.53 µM | 73.6 µM | – | – | – | – | – | – | GI50 (T-47D breast): 0.537 µM; GI50 (HS 578T breast): 2.54 µM; GI50 (DU-145 prostate): 1.19 µM; GI50 (MDA-MB-231 breast): 1.85 µM
NCCCNc1nc2ccccc2c2c(=O)c3cc(OC(F)(F)F)ccc3sc12 | – | – | 3.04 µM | 2.6 µM | – | – | – | – | – | – | GI50 (DU-145 prostate): 1.62 µM; GI50 (MDA-MB-231 breast): 1.26 µM
CCC[CH2][Ge]([CH2]CCC)([CH2]CCC)[O]C(=O)CC(=O)c1ccccc1 | – | – | – | – | 3.32 µM | 13.4 µM | 17 µM | – | 19.3 µM | 23.8 µM | GI50 (DMS 114 small cell lung): 0.0424 µM; GI50 (XF 498 CNS): 11.6 µM; GI50 (DMS 273 small cell lung): 0.752 µM; GI50 (KM20L2 colon): 0.77 µM; GI50 (M19-MEL melanoma): 3.83 µM
C[C@]12C=CC(=O)C=C1CC[C@H]1[C@@H]3C[C@@H](O)[C@](O)(C(=O)CO)[C@@]3(C)C[C@H](O)[C@@]12F | – | – | – | – | > 100 µM | > 100 µM | > 100 µM | > 100 µM | > 100 µM | > 100 µM | –
NC(N)=NCCN=C(N)N | > 100 µM | > 100 µM | > 100 µM | > 100 µM | – | – | – | – | – | – | TGI (MDA-N): > 100 µM
NC(CCCCP(=O)(O)O)C(=O)O (configuration not stated) | > 100 µM | > 100 µM | > 100 µM | > 100 µM | – | – | – | – | – | – | TGI (MDA-N): > 100 µM
Cc1nc(N)sc1-c1ccnc(Nc2ccc(N3CCOCC3)cc2)n1 | > 100 µM | > 100 µM | > 100 µM | > 100 µM | – | – | – | – | – | – | GI50 (T-47D breast): 2.92 µM; GI50 (HS 578T breast): 0.603 µM; GI50 (DU-145 prostate): 2.99 µM; GI50 (MDA-MB-231 breast): 3.1 µM
C=CC(Br)(CBr)CCC(Cl)C(C)C (configuration not stated) | – | 8.01 µM | 8.69 µM | 2.79 µM | – | – | – | – | – | – | TGI (MDA-N): 2.8 µM
CC(=O)Oc1cccc2c(/C=N/NC(N)=S)ncc(C)c12 | 31.3 µM | > 73 µM | 17.8 µM | 25.8 µM | – | – | – | – | – | – | TGI (MDA-N): 21 µM
COc1ccc(C2CC(c3cccc(Nc4ccncc4)c3)=NN2c2cc(Cl)cc(Cl)c2)cc1 (configuration not stated) | 4.43 µM | – | 3.58 µM | – | – | – | – | – | – | – | GI50 (T-47D breast): 1.96 µM; GI50 (DU-145 prostate): 1.89 µM
O=NN(CCCl)C(=O)NC1CCSc2ccccc21 (configuration not stated) | – | – | – | – | > 100 µM | > 100 µM | > 100 µM | > 100 µM | > 100 µM | > 100 µM | –
COc1cc(C[S+]2CCCC2)c(SC)cc1C[S+]1CCCC1 | – | – | – | – | > 100 µM | – | > 100 µM | > 100 µM | > 100 µM | > 100 µM | –
CC(=O)OC1CCC2(C)C3CCC4(C)C(c5ccc(=O)oc5)CC5OC54C3CCC2(O)C1 (configuration not stated) | – | – | – | – | 0.69 µM | 6 µM | 13.2 µM | 12 µM | 11.8 µM | 6.97 µM | –
c1ccc(N=C2SC(=NC3CCCCC3)N(C3CCCCC3)C2=Nc2ccccc2)cc1 | > 100 µM | > 100 µM | > 100 µM | > 100 µM | – | – | – | – | – | – | TGI (MDA-N): > 100 µM
O=C(OC(=O)n1ccc2ccccc21)n1ccc2ccccc21 | – | – | – | – | > 100 µM | > 100 µM | > 100 µM | > 100 µM | > 100 µM | > 100 µM | –

From PubChem BioAssay (NCI)
